Values joined by “and” are separate entries in the source; they are usually repeats but may differ in a detail not shown here. Equal entries are not always repeated. Toxic doses and inconclusive results are not listed.
System: BDF1 mice, M5076 sarcoma ip, median survival T/C
Assay: NCI In Vivo Anticancer Drug Screen. Data for tumor model Sarcoma M5076 (intraperitoneal) in B6D2F1 (BDF1) mice
Conditions: endpoint: median survival time, higher = longer survival
Procedure: The antitumor activity of compounds was measured in mice bearing transplantable tumors. Survival or tumor size were measured and the results are expressed as the measurement made in the treated group (T) divided by the measurement made in the vehicle treated control group (C). The tumor model used in this assay is Sarcoma M5076 (intraperitoneal) in B6D2F1 (BDF1) mice

[1] = dose: 100.0 mg/kg/injection, schedule: Q04DX004 (ip), vehicle: saline with Tween-80
[2] = dose: 100.0 mg/kg/injection, schedule: Q04DX004 (ip), vehicle: saline
[3] = dose: 200.0 mg/kg/injection, schedule: Q04DX004 (ip), vehicle: saline with Tween-80
[4] = dose: 200.0 mg/kg/injection, schedule: Q04DX004 (ip), vehicle: saline
[5] = dose: 400.0 mg/kg/injection, schedule: Q04DX004 (ip), vehicle: saline with Tween-80
[6] = dose: 400.0 mg/kg/injection, schedule: Q04DX004 (ip), vehicle: saline

SMILES: CC(=O)OCc1cc(=O)n(C)c2c3c4c(cc12)c(C)cc(=O)n4CO3
- T/C (dose: 4.0 mg/kg/injection, schedule: Q01DX009 (ip), vehicle: Klucel (hydroxypropylcellulose) (HPC)): 102 % of control
- T/C (dose: 5.0 mg/kg/injection, schedule: Q04DX005 (ip), vehicle: Klucel (hydroxypropylcellulose) (HPC)): 102 % of control
- T/C (dose: 8.0 mg/kg/injection, schedule: Q01DX009 (ip), vehicle: Klucel (hydroxypropylcellulose) (HPC)): 100 % of control
- T/C (dose: 10.0 mg/kg/injection, schedule: Q04DX005 (ip), vehicle: Klucel (hydroxypropylcellulose) (HPC)): 100 % of control
- T/C (dose: 16.0 mg/kg/injection, schedule: Q01DX009 (ip), vehicle: Klucel (hydroxypropylcellulose) (HPC)): 99 % of control
- T/C (dose: 20.0 mg/kg/injection, schedule: Q01DX009 (ip), vehicle: Klucel (hydroxypropylcellulose) (HPC)): 165 % of control
- T/C (dose: 20.0 mg/kg/injection, schedule: Q04DX005 (ip), vehicle: Klucel (hydroxypropylcellulose) (HPC)): 116 % of control and 118 % of control
- T/C (dose: 32.0 mg/kg/injection, schedule: Q01DX009 (ip), vehicle: Klucel (hydroxypropylcellulose) (HPC)): 99 % of control
- T/C (dose: 40.0 mg/kg/injection, schedule: Q01DX009 (ip), vehicle: Klucel (hydroxypropylcellulose) (HPC)): 179 % of control
- T/C (dose: 40.0 mg/kg/injection, schedule: Q04DX005 (ip), vehicle: Klucel (hydroxypropylcellulose) (HPC)): 102 % of control
- T/C (dose: 64.0 mg/kg/injection, schedule: Q01DX009 (ip), vehicle: Klucel (hydroxypropylcellulose) (HPC)): 103 % of control
- T/C (dose: 80.0 mg/kg/injection, schedule: Q04DX005 (ip), vehicle: Klucel (hydroxypropylcellulose) (HPC)): 92 % of control and 95 % of control

SMILES: COC1CC(C)C(OC)C2=CC(=O)C=C(NC(=O)/C(C)=C/C=C\C(C)C(OC(N)=O)/C(C)=C\C(C)C1OC)C2=O (stereo not drawn)
- T/C (dose: 6.25 mg/kg/injection, schedule: Q04DX004 (ip), vehicle: saline + Tween-80 + alcohol): 124 % of control
- T/C (dose: 12.5 mg/kg/injection, schedule: Q04DX004 (ip), vehicle: saline + Tween-80 + alcohol): 124 % of control

SMILES: COc1cc2c(cc1OC)[C@@H]1C(=O)c3ccc4c(c3O[C@@H]1CO2)C[C@H](C(C)C)O4
- T/C (dose: 1.56 mg/kg/injection, schedule: Q01DX009 (ip), vehicle: Klucel (hydroxypropylcellulose) (HPC)): 112 % of control and 114 % of control
- T/C (dose: 3.12 mg/kg/injection, schedule: Q01DX009 (ip), vehicle: Klucel (hydroxypropylcellulose) (HPC)): 110 % of control
- T/C (dose: 6.25 mg/kg/injection, schedule: Q01DX009 (ip), vehicle: Klucel (hydroxypropylcellulose) (HPC)): 122 % of control
- T/C (dose: 12.5 mg/kg/injection, schedule: Q01DX009 (ip), vehicle: Klucel (hydroxypropylcellulose) (HPC)): 124 % of control

SMILES: O=C(NC(Cc1ccc(I)cc1)C(=O)O)c1cccc(Br)c1 (stereo not drawn)
- T/C (dose: 100.0 mg/kg/injection, schedule: Q04DX004 (ip), vehicle: Klucel (hydroxypropylcellulose) (HPC)): 116 % of control
- T/C (dose: 200.0 mg/kg/injection, schedule: Q04DX004 (ip), vehicle: Klucel (hydroxypropylcellulose) (HPC)): 114 % of control
- T/C (dose: 400.0 mg/kg/injection, schedule: Q04DX004 (ip), vehicle: Klucel (hydroxypropylcellulose) (HPC)): 99 % of control

SMILES: Nc1nc2c(c(=O)[nH]1)N(C=O)C(CNc1ccc(C(=O)N[C@@H](CCC(=O)O)C(=O)O)cc1)CN2 (stereo partly drawn)
- T/C (dose: 50.0 mg/kg/injection, schedule: Q01DX009 (ip), vehicle: sodium bicarbonate): 96 % of control
- T/C (dose: 100.0 mg/kg/injection, schedule: Q01DX009 (ip), vehicle: sodium bicarbonate): 86 % of control
- T/C (dose: 200.0 mg/kg/injection, schedule: Q01DX009 (ip), vehicle: sodium bicarbonate): 94 % of control

SMILES: O=C(O)c1ccc(C(=O)O)c(C(=O)O)c1.[NH-]C1CCCCC1[NH-].[Pt+2]
- T/C (dose: 3.11 mg/kg/injection, schedule: Q04DX005 (ip), vehicle: sodium bicarbonate): 206 % of control
- T/C (dose: 5.18 mg/kg/injection, schedule: Q04DX005 (ip), vehicle: sodium bicarbonate): 181 % of control
- T/C (dose: 8.64 mg/kg/injection, schedule: Q04DX005 (ip), vehicle: sodium bicarbonate): 216 % of control
- T/C (dose: 14.4 mg/kg/injection, schedule: Q04DX005 (ip), vehicle: sodium bicarbonate): 245 % of control
- T/C (dose: 24.0 mg/kg/injection, schedule: Q04DX005 (ip), vehicle: sodium bicarbonate): 381 % of control
- T/C (dose: 40.0 mg/kg/injection, schedule: Q04DX005 (ip), vehicle: sodium bicarbonate): 87 % of control

SMILES: N[C@H](C(=O)O)[C@@H]1CC(Cl)=NO1
- T/C (dose: 15.0 mg/kg/injection, schedule: Q04DX005 (ip), vehicle: saline): 113 % of control
- T/C (dose: 60.0 mg/kg/injection, schedule: Q04DX005 (ip), vehicle: saline): 160 % of control
- T/C (dose: 120.0 mg/kg/injection, schedule: Q04DX005 (ip), vehicle: saline): 195 % of control and 160 % of control

SMILES: Nc1nncs1
- T/C [1]: 113 % of control
- T/C [2]: 112 % of control and 116 % of control and 121 % of control
- T/C (dose: 100.0 mg/kg/injection, schedule: Q04DX005 (ip), vehicle: saline with Tween-80): 112 % of control
- T/C (dose: 100.0 mg/kg/injection, schedule: Q04DX005 (ip), vehicle: saline): 119 % of control
- T/C [3]: 116 % of control
- T/C [4]: 112 % of control and 124 % of control
- T/C (dose: 200.0 mg/kg/injection, schedule: Q04DX005 (ip), vehicle: saline with Tween-80): 121 % of control
- T/C (dose: 200.0 mg/kg/injection, schedule: Q04DX005 (ip), vehicle: saline): 116 % of control and 124 % of control
- T/C [5]: 119 % of control
- T/C [6]: 110 % of control
- T/C (dose: 400.0 mg/kg/injection, schedule: Q04DX005 (ip), vehicle: saline): 109 % of control
- T/C (dose: 800.0 mg/kg/injection, schedule: Q04DX004 (ip), vehicle: saline with Tween-80): 124 % of control
- T/C (dose: 800.0 mg/kg/injection, schedule: Q04DX004 (ip), vehicle: saline): 106 % of control
- T/C (dose: 800.0 mg/kg/injection, schedule: Q04DX005 (ip), vehicle: saline): 151 % of control

SMILES: C=C1C(=O)OC2C(OC(C)=O)C1C(OC(=O)C(C)CC)[C@]1(C)C(=O)C=C[C@H]1[C@@H]2C (stereo partly drawn)
- T/C (dose: 1.25 mg/kg/injection, schedule: Q01DX009 (ip), vehicle: Klucel (hydroxypropylcellulose) (HPC)): 110 % of control
- T/C (dose: 2.5 mg/kg/injection, schedule: Q01DX009 (ip), vehicle: Klucel (hydroxypropylcellulose) (HPC)): 107 % of control
- T/C (dose: 5.0 mg/kg/injection, schedule: Q01DX009 (ip), vehicle: Klucel (hydroxypropylcellulose) (HPC)): 101 % of control
- T/C (dose: 10.0 mg/kg/injection, schedule: Q01DX009 (ip), vehicle: Klucel (hydroxypropylcellulose) (HPC)): 110 % of control

SMILES: CCN(CC)CCNc1ccc(C)c2sc3ccccc3c(=O)c12
- T/C (dose: 5.0 mg/kg/injection, schedule: Q04DX004 (ip), vehicle: water): 113 % of control
- T/C (dose: 10.0 mg/kg/injection, schedule: Q04DX004 (ip), vehicle: water): 112 % of control
- T/C (dose: 20.0 mg/kg/injection, schedule: Q04DX004 (ip), vehicle: water): 103 % of control
- T/C (dose: 40.0 mg/kg/injection, schedule: Q04DX004 (ip), vehicle: water): 112 % of control
- T/C (dose: 160.0 mg/kg/injection, schedule: Q04DX004 (ip), vehicle: water): 108 % of control

SMILES: CC[N+](CC)(CC)CC
- T/C (dose: 10.8 mg/kg/injection, schedule: Q04DX005 (ip), vehicle: saline with Tween-80): 172 % of control

SMILES: COC(=O)Nc1ccc(Cc2ccc(NC(=O)OC)cc2)cc1
- T/C (dose: 50.0 mg/kg/injection, schedule: Q04DX004 (ip), vehicle: saline with Tween-80): 89 % of control
- T/C [1]: 103 % of control
- T/C [3]: 118 % of control
- T/C [5]: 185 % of control

SMILES: CN(Cc1cnc2nc(N)nc(N)c2n1)c1ccc(C(=O)N[C@@H](CCC(=O)O)C(=O)O)cc1
- T/C (dose: 1.7 mg/kg/injection, schedule: Q01DX009 (ip), vehicle: sodium bicarbonate): 93 % of control
- T/C (dose: 2.0 mg/kg/injection, schedule: Q04DX005 (ip), vehicle: sodium bicarbonate): 108 % of control
- T/C (dose: 2.6 mg/kg/injection, schedule: Q01DX009 (ip), vehicle: sodium bicarbonate): 101 % of control
- T/C (dose: 4.0 mg/kg/injection, schedule: Q04DX005 (ip), vehicle: sodium bicarbonate): 101 % of control
- T/C (dose: 8.0 mg/kg/injection, schedule: Q04DX005 (ip), vehicle: sodium bicarbonate): 112 % of control

SMILES: C1CCC(NC2CCCCC2)CC1
- T/C (dose: 25.0 mg/kg/injection, schedule: Q04DX004 (ip), vehicle: saline): 102 % of control
- T/C (dose: 50.0 mg/kg/injection, schedule: Q04DX004 (ip), vehicle: saline): 98 % of control
- T/C [2]: 100 % of control
- T/C [4]: 105 % of control
- T/C [6]: 105 % of control

SMILES: COc1cc(NCc2ccc3nc(N)nc(N)c3c2C)cc(OC)c1OC (tested in a mixture with another compound)
- T/C (dose: 10.0 mg/kg/injection, schedule: Q04DX005 (ip), vehicle: water): 108 % of control
- T/C (dose: 40.0 mg/kg/injection, schedule: Q04DX005 (ip), vehicle: water): 120 % of control

Source: PubChem BioAssay AID286 (DTP/NCI, 2004)
